Test results as given in US9962331B2, “Composition containing horse chestnut extract” (priority 2001, dated 2018).
Like-named read-outs stand apart in the source and are kept apart here.

Test system: human umbilical vein endothelial cells (HUVECs)
Test: Tube formation assay of HUVEC on Matrigel
Format: cell-based
Conditions: for formation of microvascular network of HUVEC (pictures): FIGS. 6-9; for inhibition at 50 µM: Homo sapiens, read-out: Percent Inhibition
Procedure: In order to do the tube formation assay, blood vessel endothelial cells, human umbilical vein endothelial cells (HUVECs), were isolated from freshly obtained cords after cesarean section according to Grant's method (Grants D S, et al., Cell, 58, pp933-943, 1989). They were identified by immunocytochemial staining with anti-Factor VIII antibody. HUVECs grown with Matrigel (BD Bioscience, Bedford, Mass., USA), were treated with the above Horse chestnut extract of the Example 1, and further incubated at 37° C. for 8-16 hrs. As a control, above procedure was repeated without Horse chestnut extract.
In order to identify the component responsible for anti-aniogenic acvity of Horse chestnut extract, components identified as in EXAMPLE 2, were subjected to the tube formation assay as described above. Since those chemicals are not soluble in water, they were dissolved in dimethyl sulfoxide (DMSO). In order to exclude the effect of solvent, HUVECs treated with the same amount of DMSO were used as a control. FIG. 5 is a picture of the 1% DMSO-treated HUVEC control, and FIGS. 6-9 are pictures showing the effect of individual components of the Horse chestnut on tube formation. […] Tubular network was disconnected by treatment with 50 μM of quercitrin, and esculetin.
The area of the tube was determined by image analysis program Image-Pro Plus® (Media Cybernetics, USA), and the results were summarized in Tables 1 and 2. […]

[1] = HUVEC, 50 μM, vs 1% DMSO control
[2] = HUVEC tube formation, 50 μM, vs 1% DMSO control

Molecule	formation of microvascular network of HUVEC (pictures) (50 μM)	Area of the Tube (%) [1]	inhibition at 50 µM [2]	inhibition at 50 µM (HUVEC)	Percent Inhibition [2]
O=c1ccc2cc(O)c(O)cc2o1 [Esculetin, esculetin]	disconnected	17%	83%	–	–
O=c1ccc2cc(O[C@@H]3O[C@H](CO)[C@@H](O)[C@H](O)[C@H]3O)c(O)cc2o1 [Esculin, esculin]	less than that by esculetin	85%	–	15%	–
C[C@@H]1O[C@@H](Oc2c(-c3ccc(O)c(O)c3)oc3cc(O)cc(O)c3c2=O)[C@H](O)[C@H](O)[C@H]1O [Quercitrin, quercitrin]	–	36%	–	64%	–
aescin	completely inhibited	0%	–	–	100
